Measured values taken from paper PMC12223310, “Mining the heparinome for cryptic antimicrobial peptides that selectively kill Gram-negative bacteria” (Molecular Systems Biology, 2025).
Converted amounts (≈) assume the structure as drawn. Square brackets hold non-standard residues; d marks the D form. Ends that are not written are not given here. Peptide text beside a SMILES is read from it.

What was measured:
[1] = tested on: Staphylococcus aureus; assay type: cell-based, Staphylococcus aureus ATCC 12600
Procedure: (§1) Antimicrobial activities were determined by the microtiter broth dilution method recommended by the National Committee of Laboratory Safety and Standards (NCLSS), adapted for AMPs (Wiegand et al, [2008]). Briefly, overnight bacterial cell cultures were brought to an exponential growth state (OD600 = 0.4) in MH broth and diluted to a final concentration of 5 × 10^5 CFU/mL. In all, 1:2 peptide serial dilutions were prepared in 96-well polypropylene plates (Greiner, Frickenhausen, Germany), in MH medium containing 0.2% (w/v) of bovine serum albumin (BSA) and 0.02% glacial acetic acid. […] The lowest concentration with no colonies was taken as MBC. The results are the average of three independent studies.

[2] = tested on: Pseudomonas sp (Pseudomonas aeruginosa); assay type: cell-based, Pseudomonas aeruginosa ATCC 15915
Procedure: as §1

[3] = tested on: Escherichia coli; assay type: cell-based, Escherichia coli BW25113
Procedure: as §1

[4] = tested on: horse erythrocytes; assay type: cell-based
Procedure: Peptide toxicity was tested on horse erythrocytes (Sandín et al, [2021]). Horse defibrinated blood was washed three times in phosphate buffer saline (PBS) pH 7.2 by centrifugation at 3× 3000 rpm for 10 min, to remove excess hemoglobin in the supernatant and then diluted tenfold in PBS. Next, 50 μL of erythrocytes were added to a 1.5 mL polypropylene tube and incubated with 50 μL of a 1:2 peptide serial dilution in PBS. An erythrocyte disruption (ED) control was prepared by adding 50 μL of 0.1% TritonX-100 in PBS instead of the peptides and an intact erythrocyte (IC) control by adding 50 μL of PBS alone. All samples and controls were incubated for 2 h at 37 °C. Samples were centrifuged at 3000 rpm for 3 min, and the supernatants were transferred to a polystyrene 96-well plate and inspected for ED by reading the absorbance at 540 nm in a Tecan Spark instrument (Tecan, Männedorf, Switzerland). The results are the average of three independent studies. The hemolysis percentage was calculated as: Hemolysis%=Sample−IC/ED−IC×100

[5] = in vitro; assay type: cell-based; conditions: human, MRC-5 cells
Procedure: (§2) Toxicity in MRC-5 and HepG2 cells was tested by the MTT assay, as described (Bello-Madruga et al, [2023]). Cell lines were maintained in Eagle’s minimum essential medium (MEMα) supplemented with 10% fetal bovine serum (FBS). Cells were cultured in 75-cm^2 flasks and then transferred to polystyrene 96-well plates, at 3 × 10^4 cells per well, and incubated overnight for attachment to the well surface. Then culture media was removed and 1:2 peptide serial dilutions in MEMα were added to each well and later incubated for 4 h. After incubation, peptides were removed and 100 μL of 0.5 mg/mL MTT staining solution in MEMα supplemented with 10% FBS was added to cells and incubated for 1.5 h at 37 °C. Formazan crystals in living cells were detected after disruption with 200 μL dimethyl sulfoxide and then absorbance was measured at 570 nm in a Tecan Spark instrument (Tecan, Männedorf, Switzerland). The results are the average of three independent studies.

[6] = assay type: in vitro ADME
Procedure: 500 µL of 1 mM peptide stock in MiliQ water were mixed with 500 µL of human serum (Sigma-Aldrich, St. Louis, MO, USA). The mixture was incubated at 37 °C with shaking, and at various time points aliquots were taken and proteolysis was stopped with cold acetonitrile (80% in MiliQ water). The samples were chilled at 4 °C for 10 min to precipitate serum proteins, and centrifuged at 13,000 rpm at 4 °C for 15 min. The supernatant was collected and analyzed by LC and LC-MS with a –60% linear gradient of solvent B (0.036%TFA in ACN) into A (0.045% TFA in H2O) over 15 min at 1 mL/min flow rate. Unaltered peptide was determined by peak integration, expressed as the percent of the amount at 0 min, and data were fitted to a one-phase exponential decay model using GraphPad Prism 8.01 to estimate half-life time (t1/2). The results are the average of three independent experiments.

[7] = tested on: Acinetobacter baumannii; assay type: cell-based, Acinetobacter baumannii ATCC 15308
Procedure: as §1

[8] = tested on: Listeria monocytogenes; assay type: cell-based, Listeria monocytogenes ATCC 19112
Procedure: as §1

[9] = tested on: MRC-5 cells; assay: in vitro; assay type: cell-based
Procedure: as §2

[10] = tested on: Enterococcus faecium; assay type: cell-based, Enterococcus faecium ATCC 19434
Procedure: as §1

[11] = Cytotoxicity, MTT assay; assay type: cell-based; conditions: human, HepG2 cells, 4 h peptide incubation in MEMα, average of three studies, read-out: LC50 (HepG2 cells)
Procedure: as §2

[12] = tested on: P. aeruginosa 827632; assay type: cell-based
Procedure: as §1

[13] = tested on: A. baumannii 3880; assay type: cell-based
Procedure: as §1

[14] = tested on: E. coli 1166795; assay type: cell-based
Procedure: as §1

[15] = tested on: A. baumannii 3878; assay type: cell-based
Procedure: as §1

[16] = tested on: E. coli CFT073; assay type: cell-based
Procedure: as §1

[17] = tested on: P. aeruginosa 827651; assay type: cell-based
Procedure: as §1

What does the source list for `CC(C)C[C@@H](NC(=O)[C@@H](CC(N)=O)NC(=O)[C@H](N)Cc1c[nH]cn1)C(=O)N[C@H](Cc1ccccc1)C(=O)N[C@H](CCCNC(=N)N)C(=O)N[C@H](CCCCN)C(=O)N[C@H](CC(C)C)C(=O)N[C@@H](C(=O)N[C@H](Cc1c[nH]cn1)C(=O)N[C@H](CCCNC(=N)N)C(=O)N[C@H](CC(C)C)C(=O)N[C@H](Cc1ccccc1)C(=O)N[C@H](CCCNC(=N)N)C(=O)N[C@H](CCCNC(=N)N)C(=O)N[C@H](CC(N)=O)C(=O)N[C@H](Cc1ccccc1)C(=O)NCC(=O)N[C@H](Cc1ccc(O)cc1)C(=O)N[C@@H](C(=O)N[C@H](CC(C)C)C(=O)N[C@H](CCCNC(=N)N)C(=O)N[C@H](CO)C(=O)N[C@@H](C(N)=O)C(C)C)[C@H](C)O)[C@H](C)O` [dHBP-5] (H-[dH][dN][dL][dF][dR][dK][dL][dT][dH][dR][dL][dF][dR][dR][dN][dF]G[dY][dT][dL][dR][dS][dV]-NH2)?
MIC S. aureus [1]: 0.8 µM (≈ 2.35 µg/mL); MIC Pseudomonas sp [2]: 0.2 µM (≈ 0.586 µg/mL); MIC E. coli [3]: 0.1 µM (≈ 0.293 µg/mL); Hemolysis (250 µM peptide) [4]: 29 ± 1; CC50 at 4 h [5]: 30 ± 1 µM; half-life in human serum [6]: exceeding 6 hours; MIC A. baumannii [7]: 0.2 µM (≈ 0.586 µg/mL); MIC L. monocytogenes [8]: 0.4 µM (≈ 1.17 µg/mL)

For HNLFRKLTHRLFRRNFGYTLRSV-NH2 [HBP-5], which MBC S. aureus [1] is on record?
The MBC S. aureus was 6.3 µM.

What about the MIC S. aureus [1] of the same compound?
The MIC S. aureus was 6.3 µM.

What about the MBC Pseudomonas sp [2] of the same compound?
The MBC Pseudomonas sp was 0.8 µM.

What about the MIC Pseudomonas sp [2] of the same compound?
The MIC Pseudomonas sp was 0.8 µM.

What about the MBC E. coli [3] of the same compound?
Its MBC E. coli is 0.4 µM.

And the MIC E. coli [3]?
The MIC E. coli was 0.4 µM.

What about the “Hemolysis (250 µM peptide)” value [4] of the same compound?
Its value is 23 ± 1.

What about the CC50 at 4 h [5] of the same compound?
Its CC50 at 4 h is 69 ± 2 µM.

And the “LC50 (MRC-5 cells, µM)” value [9]?
The value was 69 µM.

And the “MBC E. faecium” value [10]?
The value was 6.3 µM.

And the “MIC E. faecium” value [10]?
The value was 3.1 µM.

What about the MBC A. baumannii [7] of the same compound?
The MBC A. baumannii was 0.2 µM.

And the MIC A. baumannii [7]?
Its MIC A. baumannii is 0.2 µM.

What about the CC50 at 4 h [11] of the same compound?
Its CC50 at 4 h is 80 µM.

And the “MBC L. monocytogenes” value [8]?
Its value is 3.1 µM.

And the “MIC L. monocytogenes” value [8]?
Its value is 1.6 µM.

And the “MBC P. aeruginosa 827632” value [12]?
Its value is 1.6 µM.

And the “MIC P. aeruginosa 827632” value [12]?
The value was 1.6 µM.

And the “MBC A. baumannii 3880” value [13]?
Its value is 0.4 µM.

What about the “MIC A. baumannii 3880” value [13] of the same compound?
The value was 0.4 µM.

What about the “MBC E. coli 1166795” value [14] of the same compound?
The value was under 0.1 µM.

What about the “MIC E. coli 1166795” value [14] of the same compound?
The value was under 0.1 µM.

And the “MBC A. baumannii 3878” value [15]?
The value was 0.2 µM.

What about the “MIC A. baumannii 3878” value [15] of the same compound?
Its value is 0.2 µM.

What about the “MBC E. coli CFT073” value [16] of the same compound?
The value was 0.8 µM.

And the “MIC E. coli CFT073” value [16]?
The value was 0.4 µM.

What about the “MBC P. aeruginosa 827651” value [17] of the same compound?
The value was 1.6 µM.

And the “MIC P. aeruginosa 827651” value [17]?
Its value is 0.8 µM.
